Experimental data: patent publication US20250163104A1, “MACROCYCLIC IMMUNOMODULATORS” (priority 2021, published 2025)
Where a SMILES comes first, the peptide text is derived from it. Bridges are numbered along the chain shown (N, C = ends). [ ]: non-standard residue; d: D form. The star is where a group is joined. Bip = N[C@@H](Cc1ccc(-c2ccccc2)cc1)C(=O)O; Phe(4-CN) = N#Cc1ccc(C[C@H](N)C(=O)O)cc1; Phe(4-F) = N[C@@H](Cc1ccc(F)cc1)C(=O)O; Gly(cPent) = N[C@H](C(=O)O)C1CCCC1; hPhe = N[C@@H](CCc1ccccc1)C(=O)O; Cha = N[C@@H](CC1CCCCC1)C(=O)O; Cit = NC(=O)NCCC[C@H](N)C(=O)O; Gly(cPr) = N[C@H](C(=O)O)C1CC1; Ahp(2) = CCCCC[C@H](N)C(=O)O; Chg = N[C@H](C(=O)O)C1CCCCC1; Phg = N[C@H](C(=O)O)c1ccccc1; Tle = CC(C)(C)[C@H](N)C(=O)O; Carboxymethyl = O=C(O)C*; Nle = CCCC[C@H](N)C(=O)O; Orn = NCCC[C@H](N)C(=O)O; Dab = NCC[C@H](N)C(=O)O; Abu = CC[C@H](N)C(=O)O; Dap = NC[C@H](N)C(=O)O

The compounds below were run against T1, human PD-1 / PD-L1-Ig binding on Jurkat cell line over-expressing human PD-1 (Jurkat-PD-1) (Homo sapiens, UniProt Q15116) (assay: Jurkat-PD-1 Cell Binding High-Content Screening Assay (CBA)). Conditions: Jurkat-PD-1 cells, PE-labeled PD-L1-Ig 20 nM final; read-out: Jurkat HPD1_PDL1 IC50.
T1 construct: expressed in transfected cells; host or cells: Jurkat
T1 sequence (Q15116 25-288): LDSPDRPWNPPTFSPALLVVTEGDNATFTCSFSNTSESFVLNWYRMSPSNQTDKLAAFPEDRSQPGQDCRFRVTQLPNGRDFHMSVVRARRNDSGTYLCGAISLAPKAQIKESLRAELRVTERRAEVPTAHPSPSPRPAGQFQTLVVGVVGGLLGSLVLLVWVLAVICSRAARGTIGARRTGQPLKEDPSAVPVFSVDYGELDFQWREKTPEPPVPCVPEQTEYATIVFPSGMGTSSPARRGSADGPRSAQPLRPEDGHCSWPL
Type: cell-based
Outline: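 Jurkat cells over-expressing human PD-1, in DMEM/10% FCS, pre-incubated with compound 2 h at 37° C. PE-labeled human PD-L1-Ig (20 nM final) added for 1 h; cells fixed in paraformaldehyde with Hoechst 33342 nuclear stain, washed, and bound fluorescence quantified by high-content imaging.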

`CCC[C@@H]1NC(=O)[C@H](Cc2c[nH]c3ccccc23)NC(=O)[C@H](CC(=O)O)NC(=O)[C@H](Cc2ccc(OCC(=O)O)cc2)NC(=O)[C@H](CN)NC(=O)CSC[C@@H](C(=O)N[C@@H](C)C(N)=O)NC(=O)[C@H]([C@@H](C)O)NC(=O)[C@H](C(C)C)NC(=O)[C@H](CC2CCCCC2)NC(=O)[C@H](CCN)NC(=O)[C@@H](CC(C)C)NC(=O)[C@H](CCCN)NC(=O)[C@H](CCCNC(N)=O)NC(=O)[C@H](Cc2ccc(-c3ccccc3)cc2)NC1=O` [Compound 1355] and `CCCC[C@@H]1NC(=O)[C@H](Cc2c[nH]c3ccccc23)NC(=O)[C@H](CC(=O)O)NC(=O)[C@H](Cc2ccc(OCC(=O)O)cc2)NC(=O)[C@H](CN)NC(=O)CSC[C@@H](C(=O)N[C@@H](C)C(N)=O)NC(=O)[C@H]([C@@H](C)O)NC(=O)[C@H](C(C)C)NC(=O)[C@H](CC2CCCCC2)NC(=O)[C@H](CCN)NC(=O)[C@@H](CC(C)C)NC(=O)[C@H](CCCN)NC(=O)[C@H](CCCNC(N)=O)NC(=O)[C@H](Cc2ccc(-c3ccccc3)cc2)NC1=O` [Compound 1358] ({CH2CO}-[Dap]Y(Carboxymethyl)DW[Nle][Bip][Cit][Orn][dL][Dab][Cha]VTCA-NH2; thioether N-14) are within 1.5-fold of each other in IC50: 8.2 nM for the first, 7.3 nM for the second.

First: CC[C@@H]1NC(=O)[C@H](Cc2c[nH]c3ccccc23)NC(=O)[C@H](CC(=O)O)NC(=O)[C@H](Cc2ccc(OCC(=O)O)cc2)NC(=O)[C@H](CN)NC(=O)CSC[C@@H](C(=O)N[C@@H](C)C(N)=O)NC(=O)[C@H]([C@@H](C)O)NC(=O)[C@H](C(C)C)NC(=O)[C@H](CC2CCCCC2)NC(=O)[C@H](CCN)NC(=O)[C@@H](CC(C)C)NC(=O)[C@H](CCCN)NC(=O)[C@H](CCCNC(N)=O)NC(=O)[C@H](Cc2ccc(-c3ccccc3)cc2)NC1=O [Compound 1356] ({CH2CO}-[Dap]Y(Carboxymethyl)DW[Abu][Bip][Cit][Orn][dL][Dab][Cha]VTCA-NH2; thioether N-14)
Second: CCCCC[C@@H]1NC(=O)[C@H](Cc2c[nH]c3ccccc23)NC(=O)[C@H](CC(=O)O)NC(=O)[C@H](Cc2ccc(OCC(=O)O)cc2)NC(=O)[C@H](CN)NC(=O)CSC[C@@H](C(=O)N[C@@H](C)C(N)=O)NC(=O)[C@H]([C@@H](C)O)NC(=O)[C@H](C(C)C)NC(=O)[C@H](CC2CCCCC2)NC(=O)[C@H](CCN)NC(=O)[C@@H](CC(C)C)NC(=O)[C@H](CCCN)NC(=O)[C@H](CCCNC(N)=O)NC(=O)[C@H](Cc2ccc(-c3ccccc3)cc2)NC1=O [Compound 1360] ({CH2CO}-[Dap]Y(Carboxymethyl)DW[Ahp(2)][Bip][Cit][Orn][dL][Dab][Cha]VTCA-NH2; thioether N-14)
The IC50 of the first is 2-fold lower: 5.5 nM for the first, 10.8 nM for the second. The first is the more potent here.

`CC(C)C[C@H]1NC(=O)[C@H](CCCN)NC(=O)[C@H](CCCNC(N)=O)NC(=O)[C@H](Cc2ccc(-c3ccccc3)cc2)NC(=O)[C@H](C2CCCCC2)NC(=O)[C@H](Cc2c[nH]c3ccccc23)NC(=O)[C@H](CC(=O)O)NC(=O)[C@H](Cc2ccc(OCC(=O)O)cc2)NC(=O)[C@H](CN)NC(=O)CSC[C@@H](C(=O)N[C@@H](C)C(N)=O)NC(=O)[C@H]([C@@H](C)O)NC(=O)[C@H](C(C)C)NC(=O)[C@H](CC2CCCCC2)NC(=O)[C@H](CCN)NC1=O` [Compound 1357] ({CH2CO}-[Dap]Y(Carboxymethyl)DW[Chg][Bip][Cit][Orn][dL][Dab][Cha]VTCA-NH2; thioether N-14) and `CC(C)C[C@H]1NC(=O)[C@H](CCCN)NC(=O)[C@H](CCCNC(N)=O)NC(=O)[C@H](Cc2ccc(-c3ccccc3)cc2)NC(=O)[C@H](C2CCCC2)NC(=O)[C@H](Cc2c[nH]c3ccccc23)NC(=O)[C@H](CC(=O)O)NC(=O)[C@H](Cc2ccc(OCC(=O)O)cc2)NC(=O)[C@H](CN)NC(=O)CSC[C@@H](C(=O)N[C@@H](C)C(N)=O)NC(=O)[C@H]([C@@H](C)O)NC(=O)[C@H](C(C)C)NC(=O)[C@H](CC2CCCCC2)NC(=O)[C@H](CCN)NC1=O` [Compound 1368] ({CH2CO}-[Dap]Y(Carboxymethyl)DW[Gly(cPent)][Bip][Cit][Orn][dL][Dab][Cha]VTCA-NH2; thioether N-14) are within 1.5-fold of each other in IC50: 4.8 nM for the first, 7.1 nM for the second.

First: CC(C)C[C@H]1NC(=O)[C@H](CCCN)NC(=O)[C@H](CCCNC(N)=O)NC(=O)[C@H](Cc2ccc(-c3ccccc3)cc2)NC(=O)[C@H](c2ccccc2)NC(=O)[C@H](Cc2c[nH]c3ccccc23)NC(=O)[C@H](CC(=O)O)NC(=O)[C@H](Cc2ccc(OCC(=O)O)cc2)NC(=O)[C@H](CN)NC(=O)CSC[C@@H](C(=O)N[C@@H](C)C(N)=O)NC(=O)[C@H]([C@@H](C)O)NC(=O)[C@H](C(C)C)NC(=O)[C@H](CC2CCCCC2)NC(=O)[C@H](CCN)NC1=O [Compound 1359] ({CH2CO}-[Dap]Y(Carboxymethyl)DW[Phg][Bip][Cit][Orn][dL][Dab][Cha]VTCA-NH2; thioether N-14)
Second: CC(C)C[C@H]1NC(=O)[C@H](CCCN)NC(=O)[C@H](CCCNC(N)=O)NC(=O)[C@H](Cc2ccc(-c3ccccc3)cc2)NC(=O)[C@H](C2CC2)NC(=O)[C@H](Cc2c[nH]c3ccccc23)NC(=O)[C@H](CC(=O)O)NC(=O)[C@H](Cc2ccc(OCC(=O)O)cc2)NC(=O)[C@H](CN)NC(=O)CSC[C@@H](C(=O)N[C@@H](C)C(N)=O)NC(=O)[C@H]([C@@H](C)O)NC(=O)[C@H](C(C)C)NC(=O)[C@H](CC2CCCCC2)NC(=O)[C@H](CCN)NC1=O [Compound 1369] ({CH2CO}-[Dap]Y(Carboxymethyl)DW[Gly(cPr)][Bip][Cit][Orn][dL][Dab][Cha]VTCA-NH2; thioether N-14)
The IC50 of the first is 2.5-fold lower: 7.9 nM for the first, 19.9 nM for the second. The first is the more potent here.

Going from `CC(C)C[C@H]1NC(=O)[C@H](CCCN)NC(=O)[C@H](CCCNC(N)=O)NC(=O)[C@H](Cc2ccc(-c3ccccc3)cc2)NC(=O)[C@H](CC2CCCCC2)NC(=O)[C@H](Cc2c[nH]c3ccccc23)NC(=O)[C@H](CC(=O)O)NC(=O)[C@H](Cc2ccc(OCC(=O)O)cc2)NC(=O)[C@H](CN)NC(=O)CSC[C@@H](C(=O)N[C@@H](C)C(N)=O)NC(=O)[C@H]([C@@H](C)O)NC(=O)[C@H](C(C)C)NC(=O)[C@H](CC2CCCCC2)NC(=O)[C@H](CCN)NC1=O` [Compound 1361] ({CH2CO}-[Dap]Y(Carboxymethyl)DW[Cha][Bip][Cit][Orn][dL][Dab][Cha]VTCA-NH2; thioether N-14) to `CC(C)C[C@H]1NC(=O)[C@H](CCCN)NC(=O)[C@H](CCCNC(N)=O)NC(=O)[C@H](Cc2ccc(-c3ccccc3)cc2)NC(=O)[C@H](C(C)(C)C)NC(=O)[C@H](Cc2c[nH]c3ccccc23)NC(=O)[C@H](CC(=O)O)NC(=O)[C@H](Cc2ccc(OCC(=O)O)cc2)NC(=O)[C@H](CN)NC(=O)CSC[C@@H](C(=O)N[C@@H](C)C(N)=O)NC(=O)[C@H]([C@@H](C)O)NC(=O)[C@H](C(C)C)NC(=O)[C@H](CC2CCCCC2)NC(=O)[C@H](CCN)NC1=O` [Compound 1362] ({CH2CO}-[Dap]Y(Carboxymethyl)DW[Tle][Bip][Cit][Orn][dL][Dab][Cha]VTCA-NH2; thioether N-14), the IC50 rises from 14.9 nM to 52.9 nM (3.6-fold).

First: CC(C)C[C@H]1NC(=O)[C@H](CCCN)NC(=O)[C@H](CCCNC(N)=O)NC(=O)[C@H](Cc2ccc(-c3ccccc3)cc2)NC(=O)[C@H](C(C)C)NC(=O)[C@H](Cc2c[nH]c3ccccc23)NC(=O)[C@H](CC(=O)O)NC(=O)[C@H](Cc2ccc(OCC(=O)O)cc2)NC(=O)[C@H](CN)NC(=O)CSC[C@@H](C(=O)N[C@@H](C)C(N)=O)NC(=O)[C@H]([C@@H](C)O)NC(=O)[C@H](C(C)C)NC(=O)[C@H](CC2CC2)NC(=O)[C@H](CCN)NC1=O [Compound 1363]
Second: CC(C)C[C@H]1NC(=O)[C@H](CCCN)NC(=O)[C@H](CCCNC(N)=O)NC(=O)[C@H](Cc2ccc(-c3ccccc3)cc2)NC(=O)[C@H](C(C)C)NC(=O)[C@H](Cc2c[nH]c3ccccc23)NC(=O)[C@H](CC(=O)O)NC(=O)[C@H](Cc2ccc(OCC(=O)O)cc2)NC(=O)[C@H](CN)NC(=O)CSC[C@@H](C(=O)N[C@@H](C)C(N)=O)NC(=O)[C@H]([C@@H](C)O)NC(=O)[C@H](C(C)C)NC(=O)[C@H](Cc2ccc(F)cc2)NC(=O)[C@H](CCN)NC1=O [Compound 1367] ({CH2CO}-[Dap]Y(Carboxymethyl)DWV[Bip][Cit][Orn][dL][Dab][Phe(4-F)]VTCA-NH2; thioether N-14)
The IC50 of the first is 1.6-fold higher: 34.5 nM for the first, 21.7 nM for the second.

Going from `CC(C)C[C@H]1NC(=O)[C@H](CCCN)NC(=O)[C@H](CCCNC(N)=O)NC(=O)[C@H](Cc2ccc(-c3ccccc3)cc2)NC(=O)[C@H](C(C)C)NC(=O)[C@H](Cc2c[nH]c3ccccc23)NC(=O)[C@H](CC(=O)O)NC(=O)[C@H](Cc2ccc(OCC(=O)O)cc2)NC(=O)[C@H](CN)NC(=O)CSC[C@@H](C(=O)N[C@@H](C)C(N)=O)NC(=O)[C@H]([C@@H](C)O)NC(=O)[C@H](C(C)C)NC(=O)[C@H](CCc2ccccc2)NC(=O)[C@H](CCN)NC1=O` [Compound 1364] ({CH2CO}-[Dap]Y(Carboxymethyl)DWV[Bip][Cit][Orn][dL][Dab][hPhe]VTCA-NH2; thioether N-14) to `CC(C)C[C@H]1NC(=O)[C@H](CCCN)NC(=O)[C@H](CCCNC(N)=O)NC(=O)[C@H](Cc2ccc(-c3ccccc3)cc2)NC(=O)[C@H](C(C)C)NC(=O)[C@H](Cc2c[nH]c3ccccc23)NC(=O)[C@H](CC(=O)O)NC(=O)[C@H](Cc2ccc(OCC(=O)O)cc2)NC(=O)[C@H](CN)NC(=O)CSC[C@@H](C(=O)N[C@@H](C)C(N)=O)NC(=O)[C@H]([C@@H](C)O)NC(=O)[C@H](C(C)C)NC(=O)[C@H](Cc2ccc(C#N)cc2)NC(=O)[C@H](CCN)NC1=O` [Compound 1366] ({CH2CO}-[Dap]Y(Carboxymethyl)DWV[Bip][Cit][Orn][dL][Dab][Phe(4-CN)]VTCA-NH2; thioether N-14), the IC50 rises from 57.6 nM to 858 nM (15-fold).

`CC[C@H](C)[C@@H]1NC(=O)[C@H](Cc2ccc(-c3ccccc3)cc2)NC(=O)[C@H](CC(C)C)NC(=O)[C@H](Cc2c[nH]c3ccccc23)NC(=O)[C@H](CC(=O)O)NC(=O)[C@H](Cc2ccc(OCC(=O)O)cc2)NC(=O)[C@H](CN)NC(=O)CSC[C@@H](C(=O)N[C@@H](C)C(N)=O)NC(=O)[C@H]([C@@H](C)O)NC(=O)[C@H](C(C)C)NC(=O)[C@H](CC(C)C)NC(=O)[C@H](CCN)NC(=O)[C@@H](CC(C)C)NC(=O)[C@H](CCCN)NC1=O` [Compound 1370] ({CH2CO}-[Dap]Y(Carboxymethyl)DWL[Bip]I[Orn][dL][Dab]LVTCA-NH2; thioether N-14) was tested, and the IC50 was 6.4 nM.
